Laboratory results published in patent publication EP4703354A1, “COMPOUND AS CCR6 ANTAGONIST, AND PHARMACEUTICAL COMPOSITION AND USE THEREOF” (Wuhan Createrna Science and Technology Co.,Ltd., priority 2023, dated 2024).

Key:
[1] = in vitro liver microsome metabolic stability, human; format: in vitro ADME; conditions: Human liver microsomes, 37°C
Method: (§1) Preparation of working solutions for test compounds and standards: An appropriate amount of the compound was accurately weighed and dissolved in a corresponding volume of suitable solvent to prepare 1 mM stock solutions of the test compounds and standards. The stock solutions were then diluted with appropriate solvent to obtain 100 µM working solutions of the test compounds, ensuring that the DMSO content in the working solutions remained below 10%.
(§2) The internal standard compound testosterone (or tolbutamide) and its corresponding solvent, internal standard concentration (200 ng/mL), were selected based on the properties of the test compound.
(§3) • Solution A: 0.1 mol/L K2HPO4 (2.28 g K2HPO4·3H2O was dissolved in 100 mL of double-distilled water); • Solution B: 0.1 mol/L KH2PO4 (1.36 g KH2PO4 was dissolved in 100 mL of double-distilled water); • 80.2 mL of Solution A and 19.8 mL of Solution B were mixed thoroughly, and the pH was adjusted to 7.4.
(§4) 37.5 mg of glycine was weighed, dissolved in 100 mL of ultrapure water, and adjusted to pH 8.0 with NaOH.
(§5) 1.25 mg of glucose-6-phosphate dehydrogenase (400 U/mg) was weighed (the specific amount weighed was calculated based on the activity of the purchased glucose-6-phosphate dehydrogenase), dissolved in 1 mL of glycine buffer to a concentration of 500 U/mL, aliquoted into 20 µL per tube, and stored at -20°C for future use.
(§6) 7.83 mg of NADP, 0.06 mL of D-glucose-6-phosphate (260 mg/mL), and 10.17 mg of MgCl2·6H2O were precisely weighed.
(§7) The mixture was dissolved in 1 mL of pure water. The cofactor ratio composition: NADP 10 mM, D-glucose-6-phosphate 60 mM, MgCl2·6H2O 50 mM.
(§8) The reaction system (taking a 500 µL system as an example) was composed of the following solution ratios: 416.5 µL phosphate buffer, 5 µL compound working solution, 25 µL liver microsomes, 3.5 µL glucose-6-phosphate dehydrogenase, and 50 µL cofactor solution. The total incubation volume could be adjusted according to experimental requirements.
(§9) 416.5 µL of phosphate buffer was taken, 25 µL of liver microsomes, 3.5 µL of glucose-6-phosphate dehydrogenase, and 50 µL of cofactor solution were added, vortexed twice to mix, and preincubated in a 37°C water bath for 5 minutes. Then, 5 µL of the test compound working solution was added, vortexed twice to mix, each time for 2-3 seconds, and placed in a 37°C water bath to initiate the reaction, with two parallel samples set. At 0.5 min, 1 min, 2 min, 5 min, 15 min, and 30 min after the reaction, 50 µL of the mixture was taken and added to centrifuge tubes containing 200 µL of 0°C pre-cooled internal standard working solution to terminate the reaction, vortexed for 1 minute to mix, and centrifuged at 13,000 rpm for 10 minutes in a 4°C pre-cooled high-speed centrifuge. The supernatant was collected for analysis. After the compound was added and vortex-mixed, 50 µL of the mixture was rapidly transferred to a centrifuge tube containing 200 µL of a pre-cooled (0°C) internal standard working solution to terminate the reaction, vortex-mixed for 1 minute, and used as the relative zero-point sample (relative to the standard group). The sample was then placed into a 37°C water bath to initiate the reaction, and timing was started.
(§10) The sample analysis of the test compound was performed using the liquid chromatography-tandem mass spectrometry (LCMS/MS) method. The semi-quantitative determination was performed using the ratio of the analyte peak area to the internal standard peak area. The retention times of the analyte and internal standard, chromatogram acquisition, and chromatogram integration were processed using Analyst software.
(§11) The in vitro elimination rate constant k of the test compound and the control compound was determined by converting the ratio of the peak area of the test compound to the internal standard into the remaining rate, and T1/2 was then calculated according to the following formula. T1/2 = (Ln2)/(k) = (0.693)/(k) [formula] Table 3. […]

[2] = in vitro liver microsome metabolic stability, rat; format: in vitro ADME; conditions: Rat liver microsomes, 37°C
Method: as §1, §2, §3, §4, §5, §6, §7, §8, §9, §10, §11

[3] = in vitro liver microsome metabolic stability, beagle dog; format: in vitro ADME; conditions: Beagle dog liver microsomes, 37°C
Method: as §1, §2, §3, §4, §5, §6, §7, §8, §9, §10, §11

[4] = biological target: T1, human CCR6 (Homo sapiens, UniProt P51684); assay: human CCR6 calcium flux activity (FLIPR, HEK293 cells stably expressing human CCR6, CCL20 stimulation); format: cell-based; conditions: HEK293 cells stably expressing human CCR6, EC80 human MIP-3 alpha/CCL20; read-out: CCR6 inhibitory activity, IC50
T1 construct: expressed in transfected cells; host or cells: HEK293
T1 sequence (P51684 1-374): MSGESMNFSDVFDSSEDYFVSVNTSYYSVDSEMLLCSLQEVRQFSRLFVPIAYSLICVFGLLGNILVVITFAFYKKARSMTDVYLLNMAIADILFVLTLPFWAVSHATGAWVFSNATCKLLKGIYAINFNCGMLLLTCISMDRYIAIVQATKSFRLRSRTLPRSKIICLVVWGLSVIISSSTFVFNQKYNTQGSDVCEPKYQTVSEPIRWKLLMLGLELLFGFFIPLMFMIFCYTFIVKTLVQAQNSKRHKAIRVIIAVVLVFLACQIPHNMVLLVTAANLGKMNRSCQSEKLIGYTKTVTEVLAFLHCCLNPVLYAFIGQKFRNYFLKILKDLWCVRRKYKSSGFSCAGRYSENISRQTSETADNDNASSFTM
Method: The activity of the compounds was evaluated using HEK293 cells stably expressing human CCR6 via the FLIPR platform. A 384-well black cell culture plate (Greiner, 781946) was used, with a seeding density of 20,000 cells/well, and incubated overnight at 37°C in a 5% CO2 incubator. The culture medium in the cell plate wells was removed, and 20 µL of Fluo-4 Direct™ Calcium Assay Buffer (Invitrogen, F10471, Component C), 20 µL of 2× Fluo-4 Direct™ Calcium Assay Reagent (Invitrogen, F10471, Component A) working solution, and 10 µL of 6× test compound working solution were sequentially added to each well. The cell plate was incubated in a 37 °C, 5% CO2 incubator for 50 min, followed by a 10 min incubation at room temperature. Additionally, a 6×EC80 human MIP-3 alpha/CCL20 (MCE, HY-P7262) working solution was prepared. After the incubation was completed, 10 µL/well of the 6×EC80 human MIP-3 alpha/CCL20 working solution was transferred to the cell plate using a FLIPR instrument, and the fluorescence signal changes at an excitation wavelength of 494 nm and an emission wavelength of 516 nm were recorded over 90 seconds. The difference between the maximum fluorescence signal (RFUMax) and the minimum fluorescence signal (RFUMin) was used as the output signal. The compound inhibition rate and the log value of the compound concentration were calculated, and a four-parameter fitting analysis was performed using GraphPad Prism 8 software to obtain the IC50 value of the test compound.

[5] = in vivo pharmacokinetic study in SD rats; conditions: male, rat, plasma; for AUC(0-t) / Cmax / half-life: 1 mg/kg
Method: 2.2.1 Rats: SD rats, SPF grade, 6 rats per compound, male, body weight range 180-200 g.
2.2.2 Housing conditions: The animals were housed in an SPF-grade animal facility with free access to food and water, three per cage, under a 12/12-hour light/dark cycle (7:00 am/7:00 pm), at a temperature of 23 ± 3°C.
2.2.3 Drug preparation: The compound was precisely weighed, mixed with the required volume of 1% Tween 80, vortexed for 2 min, and then sonicated for 5 min until no visible particles remained. The mixture was subsequently stirred on a magnetic stirrer for 20 min, and the middle layer of the drug solution was collected for administration. For the IV group, the compound was accurately weighed, dissolved in the required volume of 50% PEG400, sonicated for 10 min, and vortexed until clear before administration.
The rats were randomly divided into 2 groups based on body weight, with 3 rats per compound per group. Group 1 was administered a single oral gavage dose (fasted), and Group 2 was administered a single tail vein bolus injection. Blood collection time points: for the po group, blood was collected at 0.167 h, 0.5 h, 1 h, 2 h, 3 h, 4 h, 6 h, and 8 h; for the iv group, blood was collected at 0.033 h, 0.167 h, 0.5 h, 1 h, 2 h, 4 h, 6 h, and 8 h.
After administration to the rats, blood was collected from the orbital venous plexus according to the sampling time points. Approximately 0.2-0.3 mL of blood was collected at each time point into anticoagulant EP tubes (containing 4 µL of EDTA-K2, 375 mg/mL, dried at 50°C). The tubes were slowly inverted up and down three times and stored in an ice box (for no more than 30 minutes). Centrifugation was performed at 4°C at 3000 × g for 10 minutes, and the supernatant was transferred to labeled EP tubes for bioanalytical testing. If testing could not be performed on the same day, the samples were stored at -80°C until analysis (care was taken to avoid multiple freeze/thaw cycles).
The data were analyzed using WinNonlin via a non-compartmental model to obtain PK parameters (Cmax, AUC0-last, AUCinf, T1/2, etc., selected based on different routes of administration). For specific data, please refer to Table 2. Table 2. PK experimental results of compounds in SD rats

Row | Structure (SMILES) | Liver microsome T1-2 (min) Human [1] | Liver microsome T1-2 (min) Rat [2] | Liver microsome T1-2 (min) Beagle dog [3] | further results
1 | CN(CC(F)(F)F)C(=O)c1nccc(Nc2c(N[C@@H](c3ccc(F)cn3)C3(C)CCCC3)c(=O)c2=O)c1O [compound 070, (R)-4-((2-(((5-fluoropyridin-2-yl)(1-methylcyclopentyl)methyl)amino)-3,4-dioxocyclobut-1-en-1-yl)amino)-3-hydroxy-N-methyl-N-(2,2,2-trifluoroethyl)picolinamide] | 201.75 min | 34.22 min | 37.22 min | –
2 | CN(CC(F)F)C(=O)c1nccc(Nc2c(N[C@@H](c3ccc(F)cn3)C3(C)CCCC3)c(=O)c2=O)c1O [compound 071, (R)-N-(2,2-difluoroethyl)-4-((2-(((5-fluoropyridin-2-yl)(1-methylcyclopentyl)methyl)amino)-3,4-dioxocyclobut-1-en-1-yl)amino)-3-hydroxy-N-methylpicolinamide] | 262.47 min | 52.81 min | 54.52 min | –
3 | Cc1cccnc1C(Nc1c(Nc2ccc(Cl)c(C(=O)N(C)C)c2O)c(=O)c1=O)C1(C)CC(F)(F)CO1 (centres unmarked) [compound 080, 6-chloro-3-((2-(((4,4-difluoro-2-methyltetrahydrofuran-2-yl)(3-methylpyridin-2-yl)methyl)amino)-3,4-dioxocyclobut-1-en-1-yl)amino)-2-hydroxy-N, N-dimethylbenzamide] | 539.06 min | 109.92 min | 1205.26 min | –
4 | CC#CC(Nc1c(Nc2ccnc(C(=O)N(C)C)c2O)c(=O)c1=O)C1(C)CC(F)(F)CO1 (centres unmarked) [compound 112, 4-((2-((1-(4,4-difluoro-2-methyltetrahydrofuran-2-yl)but-2-yn-1-yl)amino)-3,4-dioxocyclobut-1-en-1-yl)amino)-3-hydroxy-N,N-dimethylpicolinamide] | – | 560.45 min | – | IC50 [4]: 165 nM
5 | Cc1nccnc1[C@H](Nc1c(Nc2ccc(F)c(C(=O)N(C)C)c2O)c(=O)c1=O)C1(C)CCCC1 [compound 130, (R)-6-fluoro-2-hydroxy-N,N-dimethyl-3-((2-(((1-methylcyclopentyl)(3-methylpyrazin-2-yl)methyl)amino)-3,4-dioxocyclobut-1-en-1-yl)amino)benzamide] | – | 109.49 min | 2270.89 min | bioavailability ([5]; 1 mg/kg PO vs 1 mg/kg IV, read-out: Oral bioavailability F (%)): 24%; AUC(0-t) ([5]; IV): 752 ng·h/mL; Cmax ([5]; IV): 5530 ng/mL; half-life ([5]; IV): 0.22 h; AUC(0-t) ([5]; PO): 181 ng·h/mL; Cmax ([5]; PO): 158 ng/mL; half-life ([5]; PO): 2.79 h

Further lines, with some results ahead:

Row | Liver microsome T1-2 (min) Human [1] | Liver microsome T1-2 (min) Rat [2] | Liver microsome T1-2 (min) Beagle dog [3] | Structure (SMILES) | further results
6 | 310.89 min | 78.14 min | 160.31 min | Cc1cccnc1[C@H](Nc1c(Nc2ccnc(C(=O)N(C)C)c2O)c(=O)c1=O)[C@@]1(C)CC(F)(F)CO1 (single isomer, unassigned) [128A] | –
7 | 511.03 min | 120.46 min | 431.98 min | Cc1cccnc1C(Nc1c(Nc2ccc(F)c(C(=O)N(C)C)c2O)c(=O)c1=O)[C@]1(C)CC(F)(F)CO1 (stereo partly drawn) [087A, 3-((2-((((S)-4,4-difluoro-2-methyltetrahydrofuran-2-yl)(3-methylpyridin-2-yl)methyl)amino)-3,4-dioxocyclobut-1-en-1-yl)amino)-6-fluoro-2-hydroxy-N,N-dimethylbenzamide] | –
8 | 369.68 min | 571.31 min | 567.51 min | Cc1cccnc1C(Nc1c(Nc2ccc(F)c(C(=O)N(C)C)c2O)c(=O)c1=O)[C@@]1(C)CC(F)(F)CO1 (stereo partly drawn) [087B, 3-((2-((((R)-4,4-difluoro-2-methyltetrahydrofuran-2-yl)(3-methylpyridin-2-yl)methyl)amino)-3,4-dioxocyclobut-1-en-1-yl)amino)-6-fluoro-2-hydroxy-N,N-dimethylbenzamide] | –
